Laboratory results: patent US20250009716A1, “NOVEL INHIBITORS OF CLAUDIN-1 FOR THERAPEUTIC INTERVENTIONS” (BOARD OF REGENTS OF THE UNIVERSITY OF NEBRASKA, priority 2021, published 2025)
“Also recorded” adds a separate entry of the source.

Legend:
[1] = Tissue distribution after i.v. dose; type: in vivo, mice
Method: To determine the in vivo characteristics of this drug, a pharmacokinetic and tissue distribution study on 16 was performed. Following a single i.v. dose of 16 (1 mg/kg) in mice (C57B/16; n=5), serial blood samples were obtained at 0.08, 0.25, 0.75, 2, 4, 6, 8 and 24 hours after the injection and plasma samples were analyzed for 16 concentrations. Pharmacokinetic parameter values were obtained from the plasma concentration-time data using standard non-compartmental methods (WinNonlin, PharSight Corp). […] To assess the tissue distribution of 16, mice were sacrificed at 2, 8 and 24 hours after the i.v. administration of the drug. Measurable concentrations of 16 were detected in all studied tissues at 2, 8, and 24 h. […] Next, metabolic stability studies of 16 was evaluated using mouse liver S9 fractions for the in vitro assessment of phase I and II metabolism. […] Testosterone, 7-HC and diclofenac were used as positive controls, ensuring proper incubation conditions were maintained. […] The results of these in vitro drug metabolism studies guided the rational development of 16 structural analogs.
Eight-week-old healthy Balb/c mice (male and female) mice were utilized for the pharmacokinetic and biodistribution studies. In this section, up to two different administration routes (oral or IP) were evaluated for each selected drug product. The specified drug and dose were administered to a 25 g mouse. A total of 36 mice were used for each compound tested. Blood was collected by cheek bleeding at selected times between 0-168 h post-injection. Liver, spleen, kidney, brain and bone marrow were harvested at terminal time points (2, 8, 24, 48, 72 h). Tissue samples were collected and processed for bioanalysis. The drug concentration in blood and tissues was measured by LC-MS/MS using methods developed during preliminary studies and validated according to FDA guidance. Drug accumulation in tissue was assessed by calculating a tissue to plasma concentration ratio (Kp), an indicator of drug accumulation (FIGS. 6A, 6B, 7, and 38).

[2] = Cell survival assay of three inhibitors (FIG. 2B); type: cell-based
Method: (A) In-silico 3D-structure of claudin-1, cavities that can be targeted by small molecules were defined using Molegro Virtual Docker. (B) Cell survival assay showing effects of three different inhibitors (I1, I2 and 16). […] (C) Effect of 16 treatment (72 hours) upon resistance to anoikis in claudin-1 overexpressing SW480 cells and claudin-1 deficient HCT116 cells. (D) Effect of 16 treatment on cell invasion in SW480claudin-1 cells. (E) Effect of inhibitor 16 on xenograft tumors. Tumors were induced for two weeks after which 16 was injected i.p (10 mg/kg). Effect on tumor growth was monitored.

[3] = test system: Claudin-1 deficient HCT116 cells; experiment: Resistance to anoikis in claudin-1 deficient cells (negative control); type: cell-based
Text: The crystal structure of claudin-1 is unknown. Therefore, an in-silico protein folding program, YASARA, was used to identify an effective claudin-1 inhibitor. The resultant 3D-structure was then modeled using Molegro Virtual Docker (MVD) software program. These in-silico analyses identified putative cavities in the claudin-1 protein that can be targeted by small molecule inhibitors. Next, a 100K library of small molecules was screened in silico using the MVD. The top 10 inhibitors that bound to the Site #3 (targeting near c-terminal domain; the most accessible pocket; FIG. 2A) with the best binding energies were selected as hits and used for further testing. Screening of these inhibitors named Inihibitor-1 (1-1) to Inhibitor-10 (I-10) was done using SW480claudin-1, SW620 and control cells. Claudin-1 deficient HCT116 cells (WT-APC) or SW620shRNAcld-1 were used as negative controls. Resistance to anoikis and cell invasion was used as biological end-points in testing these inhibitors. […]

[4] = Metabolic stability in mouse liver S9 fractions; type: in vitro ADME
Method: To determine the in vivo characteristics of this drug, a pharmacokinetic and tissue distribution study on 16 was performed. Following a single i.v. dose of 16 (1 mg/kg) in mice (C57B/16; n=5), serial blood samples were obtained at 0.08, 0.25, 0.75, 2, 4, 6, 8 and 24 hours after the injection and plasma samples were analyzed for 16 concentrations. Pharmacokinetic parameter values were obtained from the plasma concentration-time data using standard non-compartmental methods (WinNonlin, PharSight Corp). […] To assess the tissue distribution of 16, mice were sacrificed at 2, 8 and 24 hours after the i.v. administration of the drug. Measurable concentrations of 16 were detected in all studied tissues at 2, 8, and 24 h. […] Next, metabolic stability studies of 16 was evaluated using mouse liver S9 fractions for the in vitro assessment of phase I and II metabolism. […] Testosterone, 7-HC and diclofenac were used as positive controls, ensuring proper incubation conditions were maintained. […]
(§1) Metabolic stability and reaction phenotyping: The in vitro metabolic stability of studies was determined using mice and human liver microsomes and S9 fractions (XenoTech, LLC, Lenexa, KS, USA) following standard protocols (33, 35, 36). […] Drug concentrations were determined using LC-MS/MS. […] UGTs are analyzed in Corning® Supersomes™ if incubation of HLMs with UDPGA also results in metabolite formation.

[5] = Phase I metabolism in human liver microsomes; type: in vitro ADME; conditions: 60 minutes, compared to 16
Text: The result of the metabolic stability study was expressed as the % drug conc. remaining.
To this end, a library of molecules was synthesized in order to develop an initial SAR evaluation. The first compounds tested eliminated the acylated (thio) urea as well as the napthyl group and evaluated just the urea/phenyl compounds (Compounds 1-6). The methoxy group of the naphthalene ring system was needed when the benzimidazole group was present (16 vs. Compound 8). […] The result of metabolic stability was expressed as the percentage of drug remaining at each time. […] To further determine the effect of PDS-0330 on p-Src expression and association, cells were treated with Compound 1, 16 and PDS-0330. Expression and association with p-Src was unaffected with Compound 1 (negative control). The specificity of PDS-0330 for CLDN1 was further confirmed by treating SW480^CLDN1, HCT116^CLDN2 (overexpressing another tight junction protein) or normal IEC-6 cells with PDS-0330 (FIG. 12).
as §1

[6] = test system: claudin-1 overexpressed patient-derived xenograft; experiment: Patient-derived xenograft (PDX) tumors; type: in vivo, nude mice; conditions: 5 mg/kg and 10 mg/kg
Method: Representative images of tumors from the vehicle and PDS-0330 (5 mg/kg and 10 mg/kg)-treated claudin-1 overexpressed PDX implanted nude mice.
Tumor volume was measured using calipers over time (n=5 mice per group). The formation of flank xenograft tumors in claudin-1 overexpressed PDX implanted nude mice was examined between vehicle and PDS-0330 (5 mg/kg and 10 mg/kg) treatment (n=5 mice per group). For graphs, data represent mean±SD; *, P<0.05; **, P<0.01; ***, P<0.001 & ****, P<0.0001.
Establishment of fresh patient derived xenograft (PDX) with tumors from the operating room. Human patient colon cancers were excised under standard sterile conditions. Initially, tumor fragments were implanted subcutaneously within 30 min of patient surgery over the right and left upper and lower flanks in nude mice. Subcutaneous tumors were allowed to grow for 2-4 weeks until large enough to supply adequate tumor for orthotopic implantation for PDOX models.

SW480claudin-1 cells = experiment: Cell survival (MTT assay) versus dasatinib; type: cell-based
Method: Effects on (A) phosphorylation of Src and EphA2 and (B) cell survival (MTT assay) were determined. Significant changes are boxed.

SMILES	descending order of Kp ratios ([1]; 1 mg/kg i.v.)	tissue concentrations ([1]; 2, 8 and 24 h after 1 mg/kg i.v.)	Kp ([1]; C57B/16, mouse, iv, all tissues except brain, 1 mg/kg i.v., read-out: tissue to plasma concentration ratio (Kp))	effect on cell survival, compared among I1, I2 and 16 [2]	effect on HCT116 cells [3]	primary metabolites identified [4]	drug remaining ([4]; after 60 minutes, phase I and II metabolism) [%]	metabolic stability [5]	tumor formation [6]	percent cell survival compared with dasatinib (SW480claudin-1 cells)
COc1cc2ccccc2cc1C(=O)NC(=S)Nc1ccc(-c2nc3ccccc3[nH]2)cc1 [Compound 16]	lungs>liver>spleen>kidney>heart>>brain	higher concentrations in the lung and liver tissue	≥ 1	most effective	remained unaffected	acetylation and hydroxylation with subsequent glucuronidation	30	–	–	–
O=C(NC(=S)Nc1ccc(-c2nc3ccccc3o2)cc1)c1ccc2ccccc2c1 [PDS-0330]	–	–	–	–	–	–	–	metabolically stable over 60 minutes	inhibits tumor formation	significantly decreased percent cell survival more than dasatinib; also recorded: more effective in inhibiting cell survival
